These are literature values, as cited in patent US10278642B2, “Methods of assessing metabolic function” (Aurum Biosciences Limited, priority 2012, dated 2019).

For this data set the following is noted: by 100 ml of the liquid at standard pressure and temperature.

As to `FC1(F)C(F)(F)C(F)(F)C2(F)C(F)(F)C(F)(F)C(F)(F)C(F)(F)C2(F)C1(F)F` (stereo not shown) [perfluorodecalin], the oxygen dissolved is 49 mL.
